Here are results for 46 compounds from ChEMBL document CHEMBL1140599, “DAT/SERT selectivity of flexible GBR 12909 analogs modeled using 3D-QSAR methods” (Bioorg Med Chem, 2007).

As usually defined, the Ki is the dissociation constant of the complex between target and ligand, obtained from inhibition or displacement. Lower therefore signals higher affinity.

For one experiment, the species on record is Rattus norvegicus. Nature of the experiment: Selectivity for rat DAT over rat SERT.
Experiment [1] addresses Sodium-dependent dopamine transporter (Rattus norvegicus, UniProt P23977). Nature of the experiment: Displacement of [125I]RTI55 from DAT in rat brain synaptosomes. In kind it is subcellular.
Experiment [2] has as its target Sodium-dependent serotonin transporter (Rattus norvegicus, UniProt P31652). Nature of the experiment: Displacement of [125I]RTI55 from SERT in rat brain synaptosomes. In kind it is subcellular.

Sequence of Sodium-dependent serotonin transporter (P31652 whole entry): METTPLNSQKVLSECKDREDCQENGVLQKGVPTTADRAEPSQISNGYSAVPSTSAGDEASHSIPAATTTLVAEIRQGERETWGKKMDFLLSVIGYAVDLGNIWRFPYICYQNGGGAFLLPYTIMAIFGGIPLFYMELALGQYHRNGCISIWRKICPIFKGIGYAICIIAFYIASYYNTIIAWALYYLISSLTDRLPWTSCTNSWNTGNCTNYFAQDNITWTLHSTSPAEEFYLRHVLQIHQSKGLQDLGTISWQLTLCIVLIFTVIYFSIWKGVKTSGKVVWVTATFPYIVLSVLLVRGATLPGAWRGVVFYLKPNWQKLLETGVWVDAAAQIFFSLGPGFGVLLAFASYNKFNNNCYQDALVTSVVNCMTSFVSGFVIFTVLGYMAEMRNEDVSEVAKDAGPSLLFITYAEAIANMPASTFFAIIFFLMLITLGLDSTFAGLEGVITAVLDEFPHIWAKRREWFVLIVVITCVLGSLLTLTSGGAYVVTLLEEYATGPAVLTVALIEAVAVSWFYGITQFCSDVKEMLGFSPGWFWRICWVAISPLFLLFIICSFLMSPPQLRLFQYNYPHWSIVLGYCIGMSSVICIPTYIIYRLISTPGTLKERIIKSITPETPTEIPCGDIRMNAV
Sequence of Sodium-dependent dopamine transporter (P23977 whole entry): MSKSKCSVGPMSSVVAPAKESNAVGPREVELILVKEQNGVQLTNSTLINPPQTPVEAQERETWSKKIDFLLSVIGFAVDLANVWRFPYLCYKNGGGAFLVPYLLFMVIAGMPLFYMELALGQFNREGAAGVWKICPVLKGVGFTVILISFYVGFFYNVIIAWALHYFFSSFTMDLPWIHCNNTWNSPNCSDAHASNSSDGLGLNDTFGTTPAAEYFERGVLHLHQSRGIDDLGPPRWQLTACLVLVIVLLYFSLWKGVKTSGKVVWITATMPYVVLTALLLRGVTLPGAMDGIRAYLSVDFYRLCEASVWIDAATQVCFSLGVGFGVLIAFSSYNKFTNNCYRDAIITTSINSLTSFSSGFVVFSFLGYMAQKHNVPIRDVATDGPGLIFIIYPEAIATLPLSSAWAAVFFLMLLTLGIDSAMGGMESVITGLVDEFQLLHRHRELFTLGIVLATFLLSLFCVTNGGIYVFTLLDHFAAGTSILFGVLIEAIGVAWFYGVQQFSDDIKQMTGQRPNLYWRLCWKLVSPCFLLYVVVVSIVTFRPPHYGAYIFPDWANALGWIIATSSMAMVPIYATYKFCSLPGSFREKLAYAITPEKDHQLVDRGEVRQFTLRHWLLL

Take `COc1ccccc1CN1CCC(CCOC(c2ccc(F)cc2)c2ccc(F)cc2)CC1`: the Ratio pKi in the experiment listed under Rattus norvegicus is 0.6.

With `CCN1CCN(CCOC(c2ccc(F)cc2)c2ccc(F)cc2)CC1`, the Ratio pKi in the experiment listed under Rattus norvegicus worked out at 1.79. Same read-out and setting: in the case of `O=[N+]([O-])c1ccc(CN2CCC(CCOC(c3ccc(F)cc3)c3ccc(F)cc3)CC2)cc1` it was 2.51. Still for that read-out and setting: as for `N#Cc1ccc(CN2CCC(CCOC(c3ccc(F)cc3)c3ccc(F)cc3)CC2)cc1`, the figure is 2.7; as for `Fc1ccc(CN2CCC(CCOC(c3ccc(F)cc3)c3ccc(F)cc3)CC2)cc1`, 2.03. As for `Fc1ccc(C(OCCN2CCN(CC34CC5CC(CC(C5)C3)C4)CC2)c2ccc(F)cc2)cc1`, the figures for the Ki in experiment [1] and in experiment [2] were 0.1 µM and 0.598 µM, respectively. Besides, the Ratio pKi in the experiment listed under Rattus norvegicus stood at 0.78. For `Fc1ccc(C(OCCN2CCN(Cc3ccc4ccccc4c3)CC2)c2ccc(F)cc2)cc1`, in that order: 0.008 µM, 0.312 µM and 1.59. For the compound `Fc1ccc(C(OCCC2CCN(Cc3ccc(Br)cc3)CC2)c2ccc(F)cc2)cc1`, the Ratio pKi in the experiment filed under Rattus norvegicus was 2.26. Turning to `Fc1ccc(C(OCCN2CCN(Cc3cc4ccccc4[nH]3)CC2)c2ccc(F)cc2)cc1`, the inhibition constant (Ki) in experiment [1] was 0.0007 µM; in experiment [2], 0.119 µM. In addition, the Ratio pKi in the experiment listed under Rattus norvegicus came to 2.23. For `O[C@H]1c2ccccc2CC[C@@H]1CN1CCN(CCOC(c2ccc(F)cc2)c2ccc(F)cc2)CC1`, in that order: 0.018 µM, 0.032 µM and 0.25.

In turn, `Fc1ccc(C(OCCC2CCN(Cc3ccc4ccccc4c3)CC2)c2ccc(F)cc2)cc1` returned an inhibition constant Ki in experiment [1] of 0.00071 µM. The Ratio pKi in the experiment listed under Rattus norvegicus came to 2.51.

Take `Fc1ccc(C(OCCC2CCN(Cc3ccc(Cl)cc3)CC2)c2ccc(F)cc2)cc1`: the Ratio pKi in the experiment listed under Rattus norvegicus was 2.3. On the same count and under the same terms, in the case of `Fc1ccc(C(OCCC2CCN(Cc3ccc(I)cc3)CC2)c2ccc(F)cc2)cc1` it was 1.99.

In the case of `Fc1ccc(C(OCCN2CCN(Cc3cccc4ccccc34)CC2)c2ccc(F)cc2)cc1`, the inhibition constant (Ki) was 0.031 µM in experiment [1] and 0.243 µM in experiment [2]. Besides, the Ratio pKi in the experiment listed under Rattus norvegicus was 0.89. In the case of `Fc1ccc(C(OCCN2CCN(CC3=Cc4ccccc4CC3)CC2)c2ccc(F)cc2)cc1`, in the experiment listed under Rattus norvegicus, the Ratio pKi came out at 1.61. `COc1ccc2c(c1)CCC(CN1CCN(CCOC(c3ccc(F)cc3)c3ccc(F)cc3)CC1)=C2` displayed a Ki in experiment [1] of 0.053 µM. For the same compound, in the experiment filed under Rattus norvegicus, the Ratio pKi is 0.03. Regarding `O=C1CCCC1CN1CCN(CCOC(c2ccc(F)cc2)c2ccc(F)cc2)CC1` (racemic), the Ratio pKi in the experiment filed under Rattus norvegicus came out at 1.06. Still for that read-out and setting: in the case of `O[C@H]1c2ccccc2CC[C@H]1CN1CCN(CCOC(c2ccc(F)cc2)c2ccc(F)cc2)CC1` it was 1.36; in that of `COc1cccc(CN2CCC(CCOC(c3ccc(F)cc3)c3ccc(F)cc3)CC2)c1`, 1.08. With `Fc1ccc(C(OCCN2CCN(Cc3ccc4ccccc4n3)CC2)c2ccc(F)cc2)cc1`, the inhibition constant Ki was found to be 0.056 µM in experiment [1] and 0.051 µM in experiment [2]. Further, the Ratio pKi in the experiment listed under Rattus norvegicus is -0.04.

On to `Fc1ccc(C(OCCC2CCN(Cc3ccc(C(F)(F)F)cc3)CC2)c2ccc(F)cc2)cc1`, for which the Ratio pKi in the experiment filed under Rattus norvegicus turned out to be 2.6.

For the compound `Fc1ccc(C(OCCC2CCN(CC#Cc3ccccc3)CC2)c2ccc(F)cc2)cc1`, the Ki is 0.0053 µM in experiment [1] and 0.164 µM in experiment [2]. In addition, the Ratio pKi in the experiment listed under Rattus norvegicus was 1.49. On the same counts, the results for `Fc1ccc(C(OCCN2CCN(Cc3cc4ccccc4s3)CC2)c2ccc(F)cc2)cc1` are 0.0041 µM, 0.495 µM and 2.08. For `COc1ccc(CN2CCC(CCOC(c3ccc(F)cc3)c3ccc(F)cc3)CC2)cc1`, in the experiment filed under Rattus norvegicus, the Ratio pKi is 1.53. Turning to `Fc1ccc(C(OCCC2CCN(C[C@@H]3C[C@H]3c3ccccc3)CC2)c2ccc(F)cc2)cc1`, the Ki in experiment [1] worked out at 0.0008 µM; in experiment [2] it was 0.022 µM. The Ratio pKi in the experiment listed under Rattus norvegicus turned out to be 1.44. On the same counts, the results for `Fc1ccc(C(OCCN2CCN(Cc3cc4ccccc4o3)CC2)c2ccc(F)cc2)cc1` are 0.0064 µM, 0.286 µM and 1.65. Consider `O=C1CCCCCC1CN1CCN(CCOC(c2ccc(F)cc2)c2ccc(F)cc2)CC1` (racemic), for which the Ratio pKi in the experiment listed under Rattus norvegicus was 1.03. As for `Fc1ccc(C(OCCC2CCN(Cc3cc4ccccc4s3)CC2)c2ccc(F)cc2)cc1`, the results for the inhibition constant Ki in experiment [1] and in experiment [2] were 0.00161 µM and 0.246 µM, respectively. Moreover, the Ratio pKi in the experiment filed under Rattus norvegicus is 2.18. As for `CCCN1CCN(CCOC(c2ccc(F)cc2)c2ccc(F)cc2)CC1`, in the experiment listed under Rattus norvegicus, the Ratio pKi was 1.35. Take `Fc1ccc(C(OCCC2CCN(Cc3cc4ccccc4o3)CC2)c2ccc(F)cc2)cc1`: the inhibition constant Ki turned out to be 0.00101 µM in experiment [1] and 0.085 µM in experiment [2]. Also, in the experiment listed under Rattus norvegicus, the Ratio pKi stood at 1.93. On to `Fc1ccc(C(OCCN2CCN(Cc3cnc4ccccc4c3)CC2)c2ccc(F)cc2)cc1`, for which the Ki in experiment [1] came to 0.0161 µM; in experiment [2] it was 0.485 µM. The Ratio pKi in the experiment listed under Rattus norvegicus worked out at 1.48. Take `Fc1ccc(C(OCCC2CCN(Cc3ccccc3)CC2)c2ccc(F)cc2)cc1`: the Ratio pKi in the experiment listed under Rattus norvegicus was found to be 1.24. With `Fc1ccc(C(OCCC2CCN(Cc3cc4ccccc4[nH]3)CC2)c2ccc(F)cc2)cc1`, the results for the Ki in experiment [1] and in experiment [2] were 0.00073 µM and 0.088 µM, respectively. Moreover, the Ratio pKi in the experiment filed under Rattus norvegicus came to 2.08. For `Fc1ccc(C(OCCC2CCN(C[C@@H]3Cc4ccccc4CN3)CC2)c2ccc(F)cc2)cc1`, in that order: 0.00477 µM, 0.0481 µM and 1. For `Fc1ccc(C(OCCN2CCN(CCCCl)CC2)c2ccc(F)cc2)cc1`, in that order: 0.042 µM, 0.338 µM and 0.91. Consider `O=C1CCCCC1CN1CCN(CCOC(c2ccc(F)cc2)c2ccc(F)cc2)CC1` (racemic), for which the Ki in experiment [1] turned out to be 0.087 µM; in experiment [2] it was 1.69 µM. Moreover, in the experiment listed under Rattus norvegicus, the Ratio pKi amounted to 1.29.

`Fc1ccc(C(OCCN2CCN(CC#Cc3ccccc3)CC2)c2ccc(F)cc2)cc1`: the Ki stood at 0.02 µM in experiment [1] and 0.266 µM in experiment [2]. The Ratio pKi in the experiment filed under Rattus norvegicus is 1.12. Regarding `Cc1ccc(CN2CCC(CCOC(c3ccc(F)cc3)c3ccc(F)cc3)CC2)cc1`, the Ratio pKi in the experiment listed under Rattus norvegicus is 1.62.

As to `COc1ccc2c(c1)CCC(CN1CCN(CCOC(c3ccc(F)cc3)c3ccc(F)cc3)CC1)C2=O` (racemic), the Ratio pKi in the experiment listed under Rattus norvegicus was -0.87. Regarding `Fc1ccc(C(OCCN2CCN(Cc3ccc4ncccc4c3)CC2)c2ccc(F)cc2)cc1`, the results for the inhibition constant (Ki) in experiment [1] and in experiment [2] were 0.0618 µM and 0.551 µM, respectively. In the experiment filed under Rattus norvegicus, the Ratio pKi is 0.95. For the compound `O=C1c2ccccc2CCC1CN1CCN(CCOC(c2ccc(F)cc2)c2ccc(F)cc2)CC1` (racemic), in the experiment filed under Rattus norvegicus, the Ratio pKi worked out at 0.29. The same measure, in the same setting: as for `C=CCN1CCN(CCOC(c2ccc(F)cc2)c2ccc(F)cc2)CC1`, the figure is 1.41. Consider `Fc1ccc(C(OCCC2CCN(C[C@H]3C[C@@H]3c3ccccc3)CC2)c2ccc(F)cc2)cc1`, for which the Ki in experiment [1] came to 0.0013 µM; in experiment [2] it was 0.136 µM. In the experiment listed under Rattus norvegicus, the Ratio pKi came out at 2.02. For the compound `Fc1ccc(C(OCCC2CCN(Cc3cccc4ccccc34)CC2)c2ccc(F)cc2)cc1`, in the experiment filed under Rattus norvegicus, the Ratio pKi worked out at 1.36. `COc1ccc2c(c1)CC[C@@H](CN1CCN(CCOC(c3ccc(F)cc3)c3ccc(F)cc3)CC1)[C@H]2O`: the inhibitory constant (Ki) in experiment [1] was 0.014 µM. In addition, the Ratio pKi in the experiment listed under Rattus norvegicus was -0.67. `Fc1ccc(C(OCCC2CCN(C[C@H]3Cc4ccccc4CN3)CC2)c2ccc(F)cc2)cc1`: the Ki in experiment [1] was 0.00932 µM; in experiment [2], 0.0152 µM. In addition, the Ratio pKi in the experiment filed under Rattus norvegicus came to 0.21.
